Experimental data taken from US10918713B2, “Epitopes from allergen proteins and methods and uses for immune response modulation” (LA JOLLA INSTITUTE FOR ALLERGY AND IMMUNOLOGY, priority 2012, dated 2021).
pIC50: −log10 of the molar value. Where “and” joins values, the source holds several entries; their conditions need not be identical. Equal values may be shown once.

Columns and labels:
DPB1*0401 = DPB1*0401 (Homo sapiens, UniProt P04440+P20036); assay: biochemical
DPA1*0103/DPB1*0201 = DPA1*0103/DPB1*0201 (Homo sapiens, UniProt P04440+P20036, A65V/A84D/A85E/K98E); assay: biochemical
DRB3*0101 = DRB3*0101 (Homo sapiens, UniProt P01903+P79483); assay: biochemical
DRB3*0202 = DRB3*0202 (Homo sapiens, UniProt P01903+P79483, A212P/D57E/F66Y/L67A/R103Q/R218S/R40L/S89Y/T80R/V86D/Y55F/Y59H); assay: biochemical
DRB4*0101 = DRB4*0101 (Homo sapiens, UniProt P01903+P13762, G164S); assay: biochemical
[1] = system: PBMC from allergic donors; assay: Dual ELISPOT, total IL-5 and IFN-γ response (SFC); format: cell-based, human; settings: for Response (SFC/10^6) Total: sum of IFNg and IL-5
Method: (§1) Spots were counted by computer-assisted image analysis (Zeiss, KS-ELISPOT reader, Munich, Germany).
(§2) Each assay was performed in triplicate. The level of statistical significance was determined with a Student's t-test using the mean of triplicate values of the response against relevant pools or individual peptides versus the response against the DMSO control.

HLA-DP = assay: HLA locus restriction, mAb inhibition of ELISPOT response; format: cell-based, human; settings: count; ≥50% inhibition by anti-HLA-DP mAb B7/21; 0/0/0 = locus could not be determined
Method: (§3) To determine the HLA locus restriction of identified epitopes, mAb inhibition assays were performed as described previously (11, 37). Preliminary determinations were made on control T cell clones of known specificity to determine optimal antibody doses leading to complete inhibition of the specific clones, and not associated with inhibition of clones known to be restricted by a different HLA allele or locus. This antibody concentration was then utilized in experiments where a dose response of antigenic peptide was tested in the presence or absence of the specific antibodies. Experimental determinations were performed utilizing ELISPOT assays specific for the particular lymphokine utilized to originally identify the particular epitope mapped.
(§4) For each antigenic region/donor combination short-term T cell lines were derived by extract stimulation of triplicate cultures of 2-3 million cells. IL-2 was added 5-8 days following stimulation. After 14 days of stimulation with the corresponding allergen extract (2-50 μg/ml), the HLA locus that restricted the response to the specific lymphokine was determined by measuring the capacity of mAbs specific for HLA-DR, DP or DQ to inhibit (block) the response. For this, PBMCs were incubated with 10 μg/ml of mAbs (Strategic Biosolutions, Windham, Me.) against HLA-DR (LB3.1), DP (B7/21) or DQ (SVPL3) 30 minutes prior to addition of 10 μg/ml of peptide. Cytokine production induced by positive peptides was then measured in ELISPOT assays as described above. The pan MHC class I Ab (W6/32) was used as a control. The decrease (inhibition) in cytokine production in the presence of an HLA locus specific mAb, relative to production in the absence of mAb, was determined.

HLA-DQ = assay: as above; format: cell-based, human; settings: count; ≥50% inhibition by anti-HLA-DQ mAb SVPL3; 0/0/0 = locus could not be determined
Method: as §3, §4

HLA-DR = assay: as above; format: cell-based, human; settings: count; ≥50% inhibition by anti-HLA-DR mAb LB3.1; 0/0/0 = locus could not be determined
Method: as §3, §4

[2] = system: PBMC from allergic donors; assay: IL-5 ELISPOT with extract-stimulated short-term lines; format: cell-based, human; settings: positive donor/peptide response
Method: as §1, §2

[3] = system: PBMC from allergic donors; assay: IFN-γ ELISPOT with extract-stimulated short-term lines; format: cell-based, human; settings: positive donor/peptide response
Method: as §1, §2

DPA1*0201/DPB1*0101 = DPA1*0201/DPB1*0101 (Homo sapiens, UniProt P04440+P20036, F191V/F38Y/F64Y/G113D/G114E/K142R/L158P/L37V/M105V/M116V/M62Q/P115A/Q81R/R125K/R223Q/T114A/T199I/T259P); assay: biochemical
DPA1*0201/DPB1*0501 = DPA1*0201/DPB1*0501 (Homo sapiens, UniProt P04440+P20036, A65V/A84E/F191V/F64L/G113D/G114E/K142R/L158P/M116V/M62Q/P115A/Q81R/R125K/T114A/T199I/T259P/V234M); assay: biochemical
Sequence of DPA1*0201/DPB1*0501 (P20036 29-260 M62Q/Q81R/T114A/K142R/L158P/F191V/T259P, other chains not shown): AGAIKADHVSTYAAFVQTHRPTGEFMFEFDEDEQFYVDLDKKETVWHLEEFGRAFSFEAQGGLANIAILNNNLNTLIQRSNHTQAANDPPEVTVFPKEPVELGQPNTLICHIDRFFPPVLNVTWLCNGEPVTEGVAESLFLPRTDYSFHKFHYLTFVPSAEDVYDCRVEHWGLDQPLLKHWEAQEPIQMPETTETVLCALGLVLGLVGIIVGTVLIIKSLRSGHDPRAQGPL

Sequence of DPA1*0201/DPB1*0101 (P20036 29-260 M62Q/Q81R/T114A/K142R/L158P/F191V, other chains not shown): as the sequence (P20036 29-260 M62Q/Q81R/T114A/K142R/L158P/F191V/T259P, other chains not shown) above, with P231T counted along it
Sequence of DRB3*0202 (P01903 26-254 limits assumed): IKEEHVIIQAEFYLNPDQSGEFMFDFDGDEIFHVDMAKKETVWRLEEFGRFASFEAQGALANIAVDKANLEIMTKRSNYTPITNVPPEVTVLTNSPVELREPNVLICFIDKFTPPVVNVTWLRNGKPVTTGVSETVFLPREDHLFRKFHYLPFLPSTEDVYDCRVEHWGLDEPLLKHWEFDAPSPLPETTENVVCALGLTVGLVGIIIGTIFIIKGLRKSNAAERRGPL
Sequence of DRB3*0202 (P79483 30-266 R40L/Y55F/D57E/Y59H/F66Y/L67A/T80R/V86D/S89Y/R103Q/A212P/R218S limits assumed): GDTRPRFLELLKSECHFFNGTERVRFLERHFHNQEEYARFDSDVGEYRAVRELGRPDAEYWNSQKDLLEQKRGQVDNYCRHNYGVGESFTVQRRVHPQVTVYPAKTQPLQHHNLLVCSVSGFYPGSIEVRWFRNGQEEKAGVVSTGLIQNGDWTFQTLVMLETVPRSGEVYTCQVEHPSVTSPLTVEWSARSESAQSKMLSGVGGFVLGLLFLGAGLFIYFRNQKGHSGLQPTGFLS

Compound | pIC50 (DPB1*0401) | Response (SFC/10^6) IL-5 ([2]; one donor per table line) | Response (SFC/10^6) IFNg ([3]; one donor per table line) | Response (SFC/10^6) Total ([1]; one donor per table line) | further results
CC[C@H](C)[C@H](N)C(=O)N[C@H](C(=O)N[C@@H](Cc1ccc(O)cc1)C(=O)N[C@H](C(=O)N[C@@H](C)C(=O)N[C@H](C(=O)N[C@@H](C)C(=O)N[C@H](C(=O)N[C@@H](CC(C)C)C(=O)N1CCC[C@H]1C(=O)N[C@@H](CC(N)=O)C(=O)N[C@@H](Cc1ccc(O)cc1)C(=O)N[C@@H](CS)C(=O)N[C@@H](CCCNC(=N)N)C(=O)N[C@@H](C)C(=O)O)[C@@H](C)O)[C@@H](C)O)C(C)C)[C@@H](C)O [3324.0014] | 5.52 | – | – | – | –
CC[C@H](C)[C@H](NC(=O)[C@H](CC(=O)O)NC(=O)[C@H](CC(=O)O)NC(=O)[C@H](CO)NC(=O)[C@@H](NC(=O)[C@@H](N)CCCCN)C(C)C)C(=O)N[C@H](C(=O)N[C@@H](Cc1ccc(O)cc1)C(=O)N[C@H](C(=O)N[C@@H](C)C(=O)N[C@H](C(=O)N[C@@H](C)C(=O)N[C@H](C(=O)N[C@@H](CC(C)C)C(=O)N1CCC[C@H]1C(=O)O)[C@@H](C)O)[C@@H](C)O)C(C)C)[C@@H](C)O [3324.0013] | 5.79 | – | – | – | pIC50 (DPA1*0103/DPB1*0201): 4.74; pIC50 (DRB3*0101): 5.22; pIC50 (DRB3*0202): 5.28
CC(C)C[C@H](NC(=O)CNC(=O)[C@H](C)NC(=O)[C@H](C)NC(=O)[C@H](C)N)C(=O)N[C@@H](C)C(=O)N[C@@H](C)C(=O)N[C@@H](C)C(=O)N[C@@H](C)C(=O)N1CCC[C@H]1C(=O)N[C@@H](CC(C)C)C(=O)N[C@@H](CCC(=O)O)C(=O)N[C@@H](CO)C(=O)N[C@@H](CCCNC(=N)N)C(=O)N[C@@H](CCC(N)=O)C(=O)O [3324.0017] | – | – | – | – | pIC50 (DRB4*0101): 7.55
CC[C@H](C)[C@H](NC(=O)[C@H](Cc1ccc(O)cc1)NC(=O)[C@H](C)NC(=O)[C@H](CC(=O)O)NC(=O)[C@H](C)NC(=O)[C@@H](NC(=O)CNC(=O)[C@@H](N)CCC(N)=O)C(C)C)C(=O)N[C@H](C(=O)N[C@@H](CC(C)C)C(=O)N[C@H](C(=O)N[C@H](C(=O)N[C@@H](CC(C)C)C(=O)N1CCC[C@H]1C(=O)N[C@@H](CCCCN)C(=O)O)[C@@H](C)O)C(C)C)[C@@H](C)O [3324.0011] | 5.70 | – | – | – | –
Bet v 1 (111-125): epitope region of allergen Bet v 1, Birch | – | – | – | – | Donors responding ([1]; number of allergic donors recognizing the epitope region): 3; % responding ([1]; percent of tested allergic donors responding): 30.0%; Total SFC ([1]; total response to the epitope region): 1132 SFC; Region restriction(s) DP (HLA-DP): 0; Region restriction(s) DQ (HLA-DQ): 0; Region restriction(s) DR (HLA-DR): 2
CC[C@H](C)[C@H](N)C(=O)N[C@@H](C)C(=O)N[C@@H](CO)C(=O)N[C@@H](CC(C)C)C(=O)N[C@@H](Cc1ccccc1)C(=O)N[C@@H](C)C(=O)N[C@@H](C)C(=O)N[C@@H](C)C(=O)NCC(=O)N[C@@H](CC(C)C)C(=O)N[C@@H](C)C(=O)N[C@@H](C)C(=O)N[C@@H](C)C(=O)N[C@@H](C)C(=O)N1CCC[C@H]1C(=O)O [3324.0015] | 4.55 | – | – | – | pIC50 (DRB4*0101): 6.52
CC(C)C[C@H](NC(=O)[C@H](CC(N)=O)NC(=O)[C@H](CC(=O)O)NC(=O)[C@H](CO)NC(=O)[C@H](CC(=O)O)NC(=O)[C@H](CC(C)C)NC(=O)[C@@H](NC(=O)[C@H](Cc1ccccc1)NC(=O)[C@H](C)NC(=O)[C@H](CCCCN)NC(=O)[C@H](Cc1ccccc1)NC(=O)[C@H](CC(C)C)NC(=O)[C@H](CCCNC(=N)N)NC(=O)[C@H](C)NC(=O)[C@@H]1CCCN1)C(C)C)C(=O)O [3324.1585] | – | 170 SFC/10^6 and 890 SFC/10^6 and 1790 SFC/10^6 and 190 SFC/10^6 and 520 SFC/10^6 and 70 SFC/10^6 | 1877 SFC/10^6 and 393 SFC/10^6 and 180 SFC/10^6 | 170 SFC/10^6 and 2767 SFC/10^6 and 1790 SFC/10^6 and 583 SFC/10^6 and 700 SFC/10^6 and 70 SFC/10^6 | –
CC[C@H](C)[C@H](NC(=O)[C@H](Cc1ccc(O)cc1)NC(=O)[C@H](C)NC(=O)[C@H](CC(=O)O)NC(=O)[C@H](C)NC(=O)[C@@H](N)C(C)C)C(=O)N[C@H](C(=O)N[C@@H](CC(C)C)C(=O)N[C@H](C(=O)N[C@H](C(=O)N[C@@H](CC(C)C)C(=O)N1CCC[C@H]1C(=O)N[C@@H](CCCCN)C(=O)N[C@@H](CO)C(=O)N[C@@H](CO)C(=O)O)[C@@H](C)O)C(C)C)[C@@H](C)O [3324.0016] | 5.60 | – | – | – | pIC50 (DPA1*0201/DPB1*0101): 7.40; pIC50 (DPA1*0201/DPB1*0501): 8.15
3324.0613 (MNIKLQMPLYVAGYK) | – | 652 SFC/10^6 | 120 SFC/10^6 | 652 SFC/10^6 and 120 SFC/10^6 | –
CC[C@H](C)[C@H](NC(=O)[C@H](CC(N)=O)NC(=O)[C@H](CCSC)NC(=O)[C@H](CC(N)=O)NC(=O)[C@H](CCC(N)=O)NC(=O)[C@H](CO)NC(=O)[C@H](Cc1ccccc1)NC(=O)[C@@H](NC(=O)[C@@H](NC(=O)[C@H](Cc1c[nH]c2ccccc12)NC(=O)[C@H](CC(C)C)NC(=O)[C@H](C)NC(=O)[C@H](CCCCN)NC(=O)[C@@H](N)CCC(=O)O)[C@@H](C)CC)[C@@H](C)CC)C(=O)N[C@@H](CCCCN)C(=O)O [3324.0615] | – | 67 SFC/10^6 | 333 SFC/10^6 | 400 SFC/10^6 | –
3337.0028 (EPIAPYHFDLSGHAF) | – | 97 SFC/10^6 | 157 SFC/10^6 | 253 SFC/10^6 | –
CC[C@H](C)[C@H](NC(=O)[C@@H](NC(=O)[C@@H](NC(=O)[C@H](C)NC(=O)[C@@H](NC(=O)[C@H](C)NC(=O)[C@H](CO)NC(=O)[C@H](Cc1c[nH]cn1)NC(=O)[C@@H](NC(=O)[C@H](CCC(N)=O)NC(=O)[C@H](C)NC(=O)[C@H](CC(C)C)NC(=O)[C@H](C)NC(=O)[C@H](CCC(=O)O)NC(=O)[C@@H](N)CCCNC(=N)N)[C@@H](C)O)[C@@H](C)CC)C(C)C)[C@@H](C)CC)C(=O)O [3324.0840] | – | 477 SFC/10^6 and 900 SFC/10^6 | 1407 SFC/10^6 | 1883 SFC/10^6 and 900 SFC/10^6 | –
CSCC[C@H](N)C(=O)N[C@@H](CCCNC(=N)N)C(=O)N[C@@H](CC(N)=O)C(=O)N[C@H](C(=O)N[C@@H](Cc1ccccc1)C(=O)N[C@@H](CC(=O)O)C(=O)N[C@@H](CC(=O)O)C(=O)N[C@H](C(=O)N[C@H](C(=O)N1CCC[C@H]1C(=O)N[C@@H](C)C(=O)N[C@@H](CC(=O)O)C(=O)N[C@@H](Cc1ccccc1)C(=O)N[C@@H](CCCCN)C(=O)N[C@H](C(=O)O)C(C)C)C(C)C)C(C)C)C(C)C [3337.0030] | – | – | – | – | Response (SFC/10^6) IL-5 ([2]; each table line is one donor): 110 SFC/10^6 and 133 SFC/10^6 and 447 SFC/10^6; Response (SFC/10^6) IFNg ([3]; each table line is one donor): 103 SFC/10^6 and 460 SFC/10^6; Response (SFC/10^6) Total ([1]; each table line is one donor): 213 SFC/10^6 and 133 SFC/10^6 and 907 SFC/10^6
